Measured values as given in publication PMC5055185, “Dual pharmacological inhibition of glutathione and thioredoxin systems synergizes to kill colorectal carcinoma stem cells” (Cancer Medicine, 2016).

What was measured:
HCT116 CRC cell line = assay: intracellular ROS, CellROX Deep Red flow cytometry, HCT116; assay type: cell-based, human; details: treated 1 h (menadione 100 μmol/L, 30 min)
Experimental: In order to estimate the effect of each inhibitor described above, intracellular reactive oxygen species (ROS) were measured using CellROX™ Deep Red reagent (Molecular Probes). Briefly, cells were seeded on 6‐well plates at 1 × 10^6 cells per well. After cells reached 90% confluence, cells were treated with designated reagents for 1 h. CellROX™ Deep Red reagent was added at a final concentration of 5 μmol/L to the culture medium and then incubated for 30 min at 37°C. Subsequently, the medium was removed and the cells were washed with PBS and detached using 0.25% trypsin‐EDTA. The resulting fluorescence was measured using a FACS Calibur flow cytometer (Becton Dickinson, Franklin Lakes, NJ). Menadione (100 μmol/L) was added 30 min before CellROX™ Deep Red reagent treatment as a reference ROS inducer. […] CD44v9 positivity of CTOS cells was analyzed as follows: Cancer spheroids were dispersed with serial treatments of TrypLE™ (20 min, GIBCO) and Accumax™ (10 min, Innovative Cell Technologies, San Diego, CA). Cell surface CD44v9 was stained with CD44v9 antibody (Cosmobio) as well as PE‐conjugated anti‐rat IgG2a (Becton Dickinson). The fluorescence was measured using a FACS Calibur flow cytometer (Becton Dickinson). Since CTOSs contained abundant auto‐fluorescent cells, we defined FL2^+FL1^− cells as authentic PE‐positive (Fig. S4). Thus, CD44v9‐positive rate was defined as FL2^+FL1^−/total live cells and CD44v9‐positive fraction was further gated and split between CD44v9^low and CD44v9^high (Fig. S4), to calculate the mean fluorescent intensity of CD44v9^high fraction.
One hour after each drug treatment, cells were stained with CellROX DeepRed and intracellular ROS were quantified with FACS. Upper: histogram of fluorescent signal is represented. Lower. representative mean fluorescent intensity scores are shown. Note that without drug treatment (Control), intracellular ROS is higher in OUMS36 and TIG3 (embryonic fibroblasts) but lower in DLD-1 and HCT116 (CRC cell lines). ROS in DLD-1 was increased by auranofin. ROS in HCT116 was increased by all the inhibitors tested. Menadione was used as a reference chemical to increase ROS.

[1] = tested on: NRF2 target genes in human embryonic fibroblasts OUMS36 or TIG-3; assay: qRT-PCR of NRF2 and TP53 target genes in fibroblasts; assay type: cell-based; details: auranofin 2 μmol/L or piperlongumine 5 μmol/L for 24 h
Experimental: Total RNA was purified using RNAiso Plus (Takara, Osaka, Japan). Reverse transcription was performed using PrimeScript™ with gDNA Eraser (Takara). For quantifying the copy number of each mRNA, we used a StepOne™ Real‐Time PCR System (Applied Biosystems, Waltham, MA) and the Taqman® method. Data were calculated according to the modified delta‐cycle of threshold (ΔCT) method. Normalized Log2 expression was defined as follows: (Log2 expression of a gene of interest) = 30 (arbitrary constant) + (CT of 18S rRNA) − (CT of a gene of interest). We used Log2 parameter for statistical analysis because mRNA expression follows a log‐normal distribution, whereas ΔCT follows normal distribution. A gene‐specific fluorescent probe was designed using a web‐based program (https://qpcr.probefinder.com/organism.jsp). […] Gene‐specific Taqman® probes were purchased from Life Technologies, (Waltham, MA, for Cat#, see Table S1 SpreadSheet2). For PCR, Thunderbird® Probe qPCR mix (Toyobo, Osaka, Japan) was used and the PCR conditions consisted of 40 cycles of two steps (95°C for 15 sec and 60°C for 50 sec).
To investigate whether NRF2 compensation occurs in fibroblasts, we quantified gene induction of NRF2 target genes by auranofin (2 μmol/L for 24 h) or piperlongumine (5 μmol/L for 24 h). […] Basal phosphorylation of NRF2 was lower in fibroblasts, compared to CTOSs (Fig. S5B). The significance of expression changes due to the exposure were as follows: GCLM (Fig. S6, Aura: P = 0.001, up‐regulated, Pipe: P = 0.009, up‐regulated), TXNRD1 (Fig. S6, Aura: P = 0.001, up‐regulated, Pipe: P = 0.439), and G6PD (Fig. S6, Aura: P = 0.001, up‐regulated, Pipe: P = 0.130).
Human embryonic fibroblasts OUMS36 or TIG-3 was incubated with designated concentration of inhibitor for 24 hours. mRNA expression of each gene was quantified by real-time RT-PCR and expression level was indicated as relative Log2 expression. Each bar indicates mean value of Log2 expression (n=3 at different passage points). Error bar indicates standard deviation. P-values of difference are described in Results.

## CC[PH](CC)(CC)[Au][S][C@@H]1O[C@H](COC(C)=O)[C@@H](OC(C)=O)[C@H](OC(C)=O)[C@H]1OC(C)=O [Aura, Auranofin]
HCT116 CRC cell line
  intracellular ROS response: increase of ROS
[1]
  G6PD mRNA expression change: up‐regulated
  GCLM mRNA expression change: up‐regulated
  TXNRD1 mRNA expression change: up‐regulated

## COc1cc(/C=C/C(=O)N2CCC=CC2=O)cc(OC)c1OC [Pipe, Piperlongumine]
HCT116 CRC cell line
  intracellular ROS response: increase of ROS
[1]
  GCLM mRNA expression change: up‐regulated
